Measurements as given in ChEMBL document CHEMBL5230176, “X-ray structure of human aldo-keto reductase 1C3 in complex with a bile acid fused tetrazole inhibitor: experimental validation, molecular docking and structural analysis” (RSC Med Chem, 2023).
Calls of active or inactive are those of the source. The rule behind the calls is not given here.

What follows are compounds tested against T1, Aldo-keto reductase family 1 member C3 (Homo sapiens) (UniProt P42330) (assay: Inhibition of 6 His-tagged human AKR1C3 expressed in Escherichia coli BL21 (DE3) cells using 9,10-phenanthrenequinone as substrate assessed as substrate reduction by measuring change in NADPH fluorescence at 33.3 uM incubated for 30 mins by fluorescence spectroscopic analysis relative to control).
T1 sequence (whole entry): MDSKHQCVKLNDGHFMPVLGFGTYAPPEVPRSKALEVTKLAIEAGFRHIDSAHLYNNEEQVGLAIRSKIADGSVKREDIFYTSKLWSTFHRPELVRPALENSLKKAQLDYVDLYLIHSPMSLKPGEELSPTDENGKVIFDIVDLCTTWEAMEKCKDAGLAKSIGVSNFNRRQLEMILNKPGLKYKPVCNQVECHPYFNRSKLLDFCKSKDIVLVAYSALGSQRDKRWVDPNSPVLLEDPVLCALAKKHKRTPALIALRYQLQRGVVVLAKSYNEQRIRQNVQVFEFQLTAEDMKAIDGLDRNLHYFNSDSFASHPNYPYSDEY

inhibition | SMILES
14.2% | C[C@H](CCC(=O)O)[C@H]1CC[C@H]2[C@H]3[C@H](CC[C@]12C)[C@@]1(C)CC[C@@H](O)C[C@H]1Cc1nnnn13
77.9% | C[C@H](CCC(=O)O)[C@H]1CC[C@H]2[C@@H]3CC[C@@H]4C[C@H](O)CC[C@]4(C)[C@H]3Cc3nnnn3[C@]12C
inactive | CCOC(=O)CC[C@@H](C)[C@H]1CC[C@H]2[C@H]3[C@H](CC[C@]12C)[C@@]1(C)CC[C@@H](OC(C)=O)C[C@H]1Cc1nnnn13
inactive | C[C@H](CCC(=O)O)[C@H]1CC[C@H]2[C@H]3[C@H](C[C@H](O)[C@]12C)[C@@]1(C)CC[C@@H](O)C[C@H]1Cc1nnnn13
inactive | COC(=O)CC[C@@H](C)[C@H]1CC[C@H]2[C@H]3[C@H](C[C@H](OC(C)=O)[C@]12C)[C@@]1(C)CC[C@@H](OC(C)=O)C[C@H]1Cc1nnnn13

The compounds below were run against T2, Aldo-keto reductase family 1 member C2 (Homo sapiens) (UniProt P52895) (assay: Inhibition of 6 His-tagged human AKR1C2 expressed in Escherichia coli BL21 (DE3) cells using 9,10-phenanthrenequinone as substrate assessed as substrate reduction by measuring change in NADPH consumption at 40 uM incubated for 15 mins by absorbance based spectroscopic analysis relative to control).
T2 sequence (whole entry): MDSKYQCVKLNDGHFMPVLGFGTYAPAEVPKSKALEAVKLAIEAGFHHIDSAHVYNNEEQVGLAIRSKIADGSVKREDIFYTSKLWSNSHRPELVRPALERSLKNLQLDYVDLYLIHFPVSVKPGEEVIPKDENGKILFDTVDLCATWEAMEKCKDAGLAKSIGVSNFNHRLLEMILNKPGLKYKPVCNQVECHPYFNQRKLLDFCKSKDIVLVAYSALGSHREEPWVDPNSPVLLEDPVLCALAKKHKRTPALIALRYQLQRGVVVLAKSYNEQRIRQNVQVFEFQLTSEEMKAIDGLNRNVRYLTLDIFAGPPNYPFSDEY

inhibition [%] | SMILES
13 | C[C@H](CCC(=O)O)[C@H]1CC[C@H]2[C@@H]3CC[C@@H]4C[C@H](O)CC[C@]4(C)[C@H]3Cc3nnnn3[C@]12C
